Data: patent publication US7563592B2, “Alizarin-based chromogenic substrates, their uses and composition containing same” (Biomerieux, S.A., priority 1999, dated 2009)

What was measured:
Escherichia coli 115 = experiment: β-galactosidase detection in semi-solid Columbia medium (Example 1); assay type: cell-based
Proteus vulgaris = experiment: β-galactosidase detection on semi-solid medium, clinical and environmental strains (Example 2); assay type: cell-based; conditions: 50 mg/l + iron citrate 500 mg/l; 18 hours; 4 strains tested
[1] = system: Yersinia pseudotuberculosis; assay type: cell-based; conditions: 50 mg/l + iron citrate 500 mg/l; 18 hours; 3 strains tested
Serratia spp. = experiment: β-galactosidase detection on semi-solid medium, clinical and environmental strains (Example 2); assay type: cell-based; conditions: 50 mg/l + iron citrate 500 mg/l; 18 hours; 14 strains tested
Providencia rettgeri = experiment: as above; assay type: cell-based; conditions: 50 mg/l + iron citrate 500 mg/l; 18 hours; 3 strains tested
[2] = system: 367 different strains collected from clinical and environmental specimens; experiment: β-galactosidase detection on semi-solid medium, all strains together (Example 2); assay type: cell-based; conditions: 18 hours at 37° C.
Escherichia hermannii = experiment: β-galactosidase detection on semi-solid medium, clinical and environmental strains (Example 2); assay type: cell-based; conditions: 50 mg/l + iron citrate 500 mg/l; 18 hours; 1 strain tested
Shigella sonnei = experiment: as above; assay type: cell-based; conditions: 50 mg/l + iron citrate 500 mg/l; 18 hours; 10 strains tested
Citrobacter freundii = experiment: as above; assay type: cell-based; conditions: 50 mg/l + iron citrate 500 mg/l; 18 hours; 16 strains tested
Escherichia coli = experiment: as above; assay type: cell-based; conditions: 50 mg/l + iron citrate 500 mg/l; 18 hours; 41 strains tested
[3] = system: β-galactosidase (EC 3.2.1.23 Sigma); experiment: Effect of pH on β-D-galactosidase detection, substrate 0.05 g/l in water (Example 4); assay type: biochemical
Experimental: To each of eighteen tubes containing 5 ml of osmotically purified water, the following were added Alizarin-2-β-D-galactoside (0.05 g/l) and 5 μl of β-galactosidase (EC 3.2.1.23 Sigma). Ammoniacal iron citrate (0.05 g/l) was added to half of these tubes. […] Finally, the pH of these tubes was adjusted to different values (2-3-4-5-6-7-8-9-10) at 24° C.

Shigella flexneri = experiment: β-galactosidase detection on semi-solid medium, clinical and environmental strains (Example 2); assay type: cell-based; conditions: 50 mg/l + iron citrate 500 mg/l; 18 hours; 2 strains tested
Klebsiella pneumoniae = experiment: as above; assay type: cell-based; conditions: 50 mg/l + iron citrate 500 mg/l; 18 hours; 19 strains tested
Aeromonas caviae = experiment: as above; assay type: cell-based; conditions: 50 mg/l + iron citrate 500 mg/l; 18 hours; 7 strains tested
Salmonella spp. = experiment: as above; assay type: cell-based; conditions: 50 mg/l + iron citrate 500 mg/l; 18 hours; 64 strains tested
Klebsiella ozaenae = experiment: as above; assay type: cell-based; conditions: 50 mg/l + iron citrate 500 mg/l; 18 hours; 3 strains tested
[4] = system: Klebsiella pneumoniae 023; experiment: Comparison of glucoside substrates in semi-solid Columbia medium (Example 7); assay type: cell-based; conditions: 0.05 g/l + iron citrate 0.05 g/l
[5] = system: Listeria monocytogenes 022; experiment: β-glucosidase detection in API strip wells (Example 6); conditions: 0.12 g/l + iron citrate 0.05 g/l

## O=C1c2ccccc2C(=O)c2c1ccc(O[C@@H]1O[C@H](CO)[C@H](O)[C@H](O)[C@H]1O)c2O [Alizarin-2-β-D-galactoside]
Escherichia coli 115; 0.01 g/l + iron citrate, 18 H
  Color: purple
  Intensity: 0.3
Escherichia coli 115; 0.01 g/l + iron citrate, 24 H
  Color: purple
  Intensity: 0.3
Escherichia coli 115; 0.01 g/l + iron citrate, 48 H
  Color: purple
  Intensity: 0.5
Escherichia coli 115; 0.03 g/l + iron citrate, 18 H
  Color: purple
  Intensity: 2.7
Escherichia coli 115; 0.03 g/l + iron citrate, 24 H
  Color: purple
  Intensity: 2.7
Escherichia coli 115; 0.03 g/l + iron citrate, 48 H
  Color: purple
  Intensity: 3
Escherichia coli 115; 0.05 g/l + iron citrate, 18 H
  Color: purple
  Intensity: 3.5
Escherichia coli 115; 0.05 g/l + iron citrate, 24 H
  Color: purple
  Intensity: 3.5
Escherichia coli 115; 0.05 g/l + iron citrate, 48 H
  Color: purple
  Intensity: 3.5
Escherichia coli 115; 0.08 g/l + iron citrate, 18 H
  Color: purple
  Intensity: 4
Escherichia coli 115; 0.08 g/l + iron citrate, 24 H
  Color: purple
  Intensity: 4
Escherichia coli 115; 0.08 g/l + iron citrate, 48 H
  Color: purple
  Intensity: 4
Proteus vulgaris
  percentage of positive strains: 0%
[1]
  percentage of positive strains: 67%
Serratia spp.
  percentage of positive strains: 86%
Providencia rettgeri
  percentage of positive strains: 0%
[2]; 50 mg/l + iron citrate 500 mg/l
  color of colonies expressing β-galactosidase activity: purple
[2]; of 367 strains
  strains that selectively hydrolyzed this substrate (not the reference substrate): Eight
Escherichia hermannii
  percentage of positive strains: 100%
Shigella sonnei
  percentage of positive strains: 100%
Citrobacter freundii
  percentage of positive strains: 100%
Escherichia coli
  percentage of positive strains: 95%
[3]; 4 hours at 37° C., no Ammoniacal iron citrate
  color of the tubes after incubation, before pH adjustment: light pink
[3]; 4 hours at 37° C., with Ammoniacal iron citrate 0.05 g/l, versus tubes without
  pink coloration of the tubes after incubation, before pH adjustment: more intense
[3]; pH 2, no iron
  Color: Yellow
[3]; pH 2, with iron (Ammoniacal iron citrate 0.05 g/l)
  Color: Yellow
[3]; pH 3, no iron
  Color: Yellow
[3]; pH 3, with iron (Ammoniacal iron citrate 0.05 g/l)
  Color: Yellow
[3]; pH 4, no iron
  Color: Yellow
[3]; pH 4, with iron (Ammoniacal iron citrate 0.05 g/l)
  Color: Yellow
[3]; pH 5, no iron
  Color: Yellow-Orange
[3]; pH 5, with iron (Ammoniacal iron citrate 0.05 g/l)
  Color: Yellow-Pink
[3]; pH 6, no iron
  Color: Pink-Orange
[3]; pH 6, with iron (Ammoniacal iron citrate 0.05 g/l)
  Color: Pink
[3]; pH 7, no iron
  Color: Pink-Orange
[3]; pH 7, with iron (Ammoniacal iron citrate 0.05 g/l)
  Color: Pink
[3]; pH 8, no iron
  Color: Pink
[3]; pH 8, with iron (Ammoniacal iron citrate 0.05 g/l)
  Color: Purple
[3]; pH 9, no iron
  Color: Purple
[3]; pH 9, with iron (Ammoniacal iron citrate 0.05 g/l)
  Color: Purple
[3]; pH 10, no iron
  Color: Mauve
[3]; pH 10, with iron (Ammoniacal iron citrate 0.05 g/l)
  Color: Mauve
Shigella flexneri
  percentage of positive strains: 0%
Klebsiella pneumoniae
  percentage of positive strains: 100%
Aeromonas caviae
  percentage of positive strains: 86%
Salmonella spp.
  percentage of positive strains: 0%
Klebsiella ozaenae
  percentage of positive strains: 100%

## O=C1c2ccccc2C(=O)c2c1ccc(O[C@@H]1O[C@H](CO)[C@@H](O)[C@H](O)[C@H]1O)c2O [Alizarin-2-β-D-glucoside]
[4]; 18 H
  Color: Purple
  Intensity: 3.5 arbitrary units
[4]; 24 H
  Color: Purple
  Intensity: 4 arbitrary units
[4]; 48 H
  Color: Purple
  Intensity: 4 arbitrary units
[5]; 4 H
  Color observed: Purple
[5]; 24 H
  Color observed: Purple
